The results in this text go back to patent publication US20090227600A1, “4-(PYRAZINE-2-YL) -PYRROLIDINE -2-CARBOXYLIC ACID COMPOUNDS AND DERIVATIVES THEREOF AS HEPATITIS C VIRUS INHIBITORS” (priority 2004, published 2009).

For test [1], the system named is Huh-7 HCV replicon cells (genotype 1a). The test is described as follows: Replicon ELISA cell based assay, genotype 1a. Set-up: species or system HCV genotype 1a. Particulars: Hepatitis C virus, Huh-7 genotype 1a replicon, 72 hours. As to the method: (§1) 100 μL of medium containing 10% FCS were added to each well of clear, flat-bottomed 96 well microplates, excepting wells in the top row. Test compound was diluted in assay medium to twice the final required starting concentration from a 40 mM stock solution in DMSO. 200 μL of the starting dilution were introduced into two wells each in the top row and doubling dilutions made down the plate by the sequential transfer of 100 μL aliquots with thorough mixing in the wells; the final 100 μL were discarded. The two bottom rows were not used for compound dilutions. Huh-7 HCV replicon cell monolayers nearing confluency were stripped from growth flasks with versene-trypsin solution and the cells were resuspended in assay medium at either 2×10^5 cells/mL (sub-line 5-15; genotype 1b; Lohmann, V., Komer, F., Koch, J-O., Herian, U., Thielmann, L. And Bartenschlager, R., 1999, Science, 285, pp 110-113) or at 3×10^5 cells/mL (genotype 1a; Gu, B., Gates, A. T., Isken, O., Behrens, S. E. and Sarisky, R. T., J. Virol., 2003, 77, 5352-5359). 100 μL of cell suspension were added to all wells and the plates incubated at 37° C. for 72 hours in a 5% CO2 atmosphere.
(§2) Following incubation, the assay medium was aspirated from the plates. The cell sheets were washed by gentle immersion in phosphate buffered saline (PBS), which was then aspirated off, and fixed with acetone:methanol (1:1) for 5 minutes. Following a further wash with PBS, 100 μL of ELISA diluent (PBS+0.05% v/v Tween 20+2% w/v skimmed milk powder) were added to all wells and the plates incubated at 37° C. for 30 minutes on an orbital platform. The diluent was removed and each well then received 50 μL of a 1/200 dilution of anti-HCV specific, murine, monoclonal antibody (either Virostat #1872 or #1877), except for wells in one of the compound-free control rows which received diluent alone to act as negative controls. The plates were incubated at 37° C. for 2 hours and washed 3 times with PBS/0.05% Tween 20, then 50 μL of horseradish peroxidase conjugated, anti-mouse, rabbit polyclonal serum (Dako #P0260), diluted 1/1000, were added to all wells. The plates were incubated for a further hour, the antibody removed and the cell sheets washed 5 times with PBS/Tween and blotted dry. The assay was developed by the addition of 50 μL of ortho-phenylenediamine/peroxidase substrate in urea/citrate buffer (SigmaFast, Sigma #P-9187) to each well, and colour allowed to develop for up to 15 minutes. The reaction was stopped by the addition of 25 μL per well of 2 M sulphuric acid and the plates were read at 490 nm on a Fluostar Optima spectrophotometer.
(§3) The substrate solution was removed and the plates were washed in tap water, blotted dry and the cells stained with 5% carbol fuchsin in water for 30 minutes. The stain was discarded and the cell sheets washed, dried and examined microscopically to assess cytotoxicity.
(§4) The absorbance values from all compound-free wells that had received both primary and secondary antibodies were averaged to obtain a positive control value. The mean absorbance value from the compound-free wells that had not received the primary antibody was used to provide the negative (background) control value. The readings from the duplicate wells at each compound concentration were averaged and, after the subtraction of the mean background from all values, were expressed as a percentage of the positive control signal. The quantifiable and specific reduction of expressed protein detected by the ELISA in the presence of a drug can be used as a measure of replicon inhibition. GraFit software was used to plot the curve of percentage inhibition against compound concentration and derive the 50% inhibitory concentration (IC50) for the compound.
On the technique in general: A replicon is a self-replicating genome or part of one, used to study replication in cells.

For test [2], the system named is Huh-7 HCV replicon cells (sub-line 5-15; genotype 1b). The test is described as follows: Replicon ELISA cell based assay, genotype 1b. Set-up: species or system HCV genotype 1b. Particulars: Hepatitis C virus, Huh-7 genotype 1b replicon (sub-line 5-15), 72 hours. The protocol:
as §1, §2, §3, §4

The IC50 is the concentration that inhibits the measured activity by half. Read a low IC50 as higher potency.

`COc1cc(C(=O)N2[C@@H](c3nccs3)[C@@H](c3cnccn3)C[C@@]2(CC(C)C)C(=O)O)ccc1C(C)(C)C` (racemic) [Compound A, rel-(2S,4S,5R)-2-Isobutyl-1-(4-tert-butyl-3-methoxybenzoyl)-4-(pyrazin-2-yl)-5-(1,3-thiazol-2-yl)pyrrolidine-2-carboxylic acid, reference compound]: the IC50 fell in the range of 10 to 100 µM in test [1] and 0.1 to 10 µM in test [2].

As to `COc1cc(C(=O)N2[C@@H](c3nccs3)[C@@H](c3cnccn3)C[C@@]2(Cc2ccccn2)C(=O)O)ccc1C(C)(C)C` (racemic) [Compound C, rel-(2R,4S,5R)-1-(4-tert-Butyl-3-methoxybenzoyl)-2-(pyridin-2-ylmethyl)-4-(pyrazin-2-yl)-5-(1,3-thiazol-2-yl)pyrrolidine-2-carboxylic acid, reference compound], the IC50 was in the range of 10 to 100 µM in test [1] and 0.1 to 10 µM in test [2].

`COc1cc(C(=O)N2[C@@H](c3nccs3)[C@@H](c3cnccn3)C[C@@]2(Cc2c[nH]cn2)C(=O)O)ccc1C(C)(C)C` (racemic) [Compound D, rel-(2R,4S,5R)-1-(4-tert-Butyl-3-methoxybenzoyl)-2-(1H-imidazol-4-yl-methyl)-4-(pyrazin-2-yl)-5-(1,3-thiazol-2-yl)-pyrrolidine-2-carboxylic acid, reference compound]: the results for the IC50 in test [1] and in test [2] were > 100 µM and 0.1 to 10 µM, respectively.

For the compound `COc1cc(C(=O)N2[C@@H](c3cncs3)[C@@H](c3cnccn3)C[C@@]2(CCSC)C(=O)O)ccc1C(C)(C)C` (racemic) [Compound E, rel-(2R,4S,5R)-1-(4-tert-Butyl-3-methoxybenzoyl)-2-(2-(methylthio)ethyl)-4-(pyrazin-2-yl)-5-(1,3-thiazol-5-yl)-pyrrolidine-2-carboxylic acid, reference compound], the IC50 in test [1] lay within 10 to 100 µM; in test [2], 0.1 to 10 µM.

With `COc1cc(C(=O)N2[C@@H](c3nccs3)[C@@H](c3cnccn3)C[C@@]2(CCS(C)(=O)=O)C(=O)O)ccc1C(C)(C)C` (racemic) [Compound F, rel-(2R,4S,5R)-1-(4-tert-Butyl-3-methoxybenzoyl)-2-(2-(methylsulphonyl)ethyl)-4-pyrazin-2-yl-5-(1,3-thiazol-2-yl)-pyrrolidine-2-carboxylic acid, reference compound], the results for the IC50 in test [1] and in test [2] were > 100 µM and > 10 µM, respectively.

For the compound `COc1cc(C(=O)N2[C@@H](c3nccs3)[C@@H](c3cnccn3)C[C@@]2(Cc2ccccc2)C(=O)O)ccc1C(C)(C)C` (racemic) [Compound G, rel-(2R,4S,5R)-1-(4-tert-Butyl-3-methoxybenzoyl)-2-(phenylmethyl)-4-(pyrazin-2-yl)-5-(1,3-thiazol-2-yl)pyrrolidine-2-carboxylic acid, reference compound], the IC50 in test [1] fell in the range of 10 to 100 µM; in test [2] it was 0.1 to 10 µM.

With `COc1cc(C(=O)N2[C@@H](c3nccs3)[C@@H](c3cnccn3)C[C@@]2(Cc2cscn2)C(=O)O)ccc1C(C)(C)C` (racemic) [Example 1, rel-(2R,4S,5R)-1-(3-Methoxy-4-tert-butylbenzoyl)-4-(pyrazin-2-yl)-2-(1,3-thiazol-4-ylmethyl)-5-(1,3-thiazol-2-yl)pyrrolidine-2-carboxylic acid], the IC50 was < 10 µM in test [1] and < 0.1 µM in test [2].

In the case of `COc1cc(C(=O)N2[C@@H](c3nccs3)[C@@H](c3cnccn3)C[C@@]2(Cc2nccs2)C(=O)O)ccc1C(C)(C)C` (racemic) [Example 3, rel-(2R,4S,5R)-1-(3-Methoxy-4-tert-butylbenzoyl)-4-(pyrazin-2-yl)-2-(1,3-thiazol-2-ylmethyl)-5-(1,3-thiazol-2-yl)pyrrolidine-2-carboxylic acid], the results for the IC50 in test [1] and in test [2] were < 10 µM and < 0.1 µM, respectively.

Consider `COc1cc(C(=O)N2[C@@H](c3ncc(C)s3)[C@@H](c3cnccn3)C[C@@]2(Cc2ccsn2)C(=O)O)ccc1C(C)(C)C` (racemic) [Example 5, rel-(2R,4S,5R)-1-(3-Methoxy-4-tert-butylbenzoyl)-5-(5-methyl-1,3-thiazol-2-yl)-4-(pyrazin-2-yl)-2-(1,2-thiazol-3-ylmethyl)pyrrolidine-2-carboxylic acid], for which the values for the IC50 in test [1] and in test [2] were < 10 µM and < 0.1 µM, respectively.

Regarding `COc1cc(C(=O)N2[C@@H](c3nccs3)[C@@H](c3cnccn3)C[C@@]2(Cc2ccsn2)C(=O)O)ccc1C(C)(C)C` (racemic) [Example 7, rel-(2R,4S,5R)-1-(3-Methoxy-4-tert-butylbenzoyl)-4-(pyrazin-2-yl)-2-(1,2-thiazol-3-ylmethyl)-5-(1,3-thiazol-2-yl)pyrrolidine-2-carboxylic acid], the IC50 is < 10 µM in test [1] and < 0.1 µM in test [2].

In the case of `COc1cc(C(=O)N2[C@@H](c3ncc(C)s3)[C@@H](c3cnccn3)C[C@@]2(Cn2cccn2)C(=O)O)ccc1C(C)(C)C` (racemic) [Example 9, rel-(2R,4S,5R)-1-(3-Methoxy-4-tert-butylbenzoyl)-5-(5-methyl-1,3-thiazol-2-yl)-4-(pyrazin-2-yl)-2-(1H-pyrazol-1-ylmethyl)pyrrolidine-2-carboxylic acid], the IC50 was < 10 µM in test [1] and < 0.1 µM in test [2].

For the compound `COc1cc(C(=O)N2[C@@H](c3nccs3)[C@@H](c3cnccn3)C[C@@]2(Cn2cccn2)C(=O)O)ccc1C(C)(C)C` (racemic) [Example 11, rel-(2R,4S,5R)-1-(3-Methoxy-4-tert-butylbenzoyl)-4-(pyrazin-2-yl)-2-(1H-pyrazol-1-ylmethyl)-5-(1,3-thiazol-2-yl)pyrrolidine-2-carboxylic acid], the IC50 in test [1] is < 10 µM; in test [2], < 0.1 µM.

Regarding `COc1cc(C(=O)N2[C@@H](c3ncc(C)s3)[C@@H](c3cnccn3)C[C@@]2(Cc2nccs2)C(=O)O)ccc1C(C)(C)C` (racemic) [Example 13, rel-(2R,4S,5R)-1-(3-Methoxy-4-tert-butylbenzoyl)-5-(5-methyl-1,3-thiazol-2-yl)-4-(pyrazin-2-yl)-2-(1,3-thiazol-2-ylmethyl)pyrrolidine-2-carboxylic acid], the IC50 in test [1] is < 10 µM; in test [2] it was < 0.1 µM.

With `COc1cc(C(=O)N2[C@@H](c3ncc(C)s3)[C@@H](c3cnccn3)C[C@@]2(Cc2cscn2)C(=O)O)ccc1C(C)(C)C` (racemic) [Example 15, rel-(2R,4S,5R)-1-(3-Methoxy-4-tert-butylbenzoyl)-5-(5-methyl-1,3-thiazol-2-yl)-4-(pyrazin-2-yl)-2-(1,3-thiazol-4-ylmethyl)pyrrolidine-2-carboxylic acid], the figures for the IC50 in test [1] and in test [2] were < 10 µM and < 0.1 µM, respectively.

Take `COc1cc(C(=O)N2[C@@H](c3nccs3)[C@@H](c3cnccn3)C[C@@]2(CC(C)C)C(=O)O)ccc1C(C)(C)C` (single isomer, unassigned; enantiomer a) [Compound B, reference compound]: the values for the IC50 in test [1] and in test [2] were 10 to 100 µM and 0.1 to 10 µM, respectively.

Regarding `COc1cc(C(=O)N2[C@@H](c3nccs3)[C@@H](c3cnccn3)C[C@@]2(Cc2cscn2)C(=O)O)ccc1C(C)(C)C` (single isomer, unassigned; enantiomer a) [Example 2], the IC50 in test [1] is < 10 µM; in test [2], < 0.1 µM.

For the compound `COc1cc(C(=O)N2[C@@H](c3nccs3)[C@@H](c3cnccn3)C[C@@]2(Cc2nccs2)C(=O)O)ccc1C(C)(C)C` (single isomer, unassigned; enantiomer a) [Example 4], the IC50 is < 10 µM in test [1] and < 0.1 µM in test [2].

`COc1cc(C(=O)N2[C@@H](c3ncc(C)s3)[C@@H](c3cnccn3)C[C@@]2(Cc2ccsn2)C(=O)O)ccc1C(C)(C)C` (single isomer, unassigned; enantiomer a) [Example 6]: the IC50 in test [1] was < 10 µM; in test [2], < 0.1 µM.
